Measurements: patent US20250325534A1, “MICROBIOCIDAL TETRAHYDROISOQUINOLINE DERIVATIVES” (SYNGENTA CROP PROTECTION AG, priority 2021, published 2025)

What follows are compounds tested on Mycosphaerella graminicola (assay: Mycosphaerella graminicola (Septoria tritici) / liquid culture (Septoria blotch)). Conditions: Zymoseptoria tritici, 96 h, photometrically 4-5 days after application, read-out: control of Mycosphaerella graminicola.
Format: cell-based
Experimental: Example B19: Mycosphaerella graminicola (Septoria tritici)/Liquid Culture (Septoria Blotch) Conidia of the fungus from cryogenic storage are directly mixed into a nutrient broth (potato dextrose broth). After placing a DMSO solution of test compound into a microtiter plate (96-well format), the nutrient broth containing the fungal spores is added. The test plates are incubated at 24° C. and the inhibition of growth is determined photometrically 4-5 days after application.
COc1ccc2c(c1)[C@@H](c1cnn(C)c1)CN(C(=O)c1cc(-c3ccc(F)cc3F)on1)[C@@H]2C (racemic) [Compound P-217, [5-(2,4-difluorophenyl)isoxazol-3-yl]-[rac-(1R,4S)-6-methoxy-1-methyl-4-(1-methylpyrazol-4-yl)-3,4-dihydro-1H-isoquinolin-2-yl]methanone] was tested, and the inhibition of growth at 20 ppm was ≥ 80%. Cc1c([C@H]2CN(C(=O)c3cc(-c4ccc(F)cc4F)on3)[C@@H](C)c3ccccc32)cnn1C (racemic) [Compound P-242, [5-(2,4-difluorophenyl)isoxazol-3-yl]-[rac-(1S,4S)-4-(1,5-dimethylpyrazol-4-yl)-1-methyl-3,4-dihydro-1H-isoquinolin-2-yl]methanone] was tested, and the inhibition of growth at 20 ppm was ≥ 80%. In the case of C[C@H]1c2ccc(O)cc2[C@@H](c2cnn(C)c2)CN1C(=O)c1cc(-c2ccc(F)cc2F)on1 (racemic) [Compound P-245, [5-(2,4-difluorophenyl)isoxazol-3-yl]-[rac-(1S,4S)-6-hydroxy-1-methyl-4-(1-methylpyrazol-4-yl)-3,4-dihydro-1H-isoquinolin-2-yl]methanone], the inhibition of growth at 20 ppm is reported as ≥ 80%. With C[C@@H]1c2ccccc2[C@](C)(c2cnn(C)c2)CN1C(=O)c1cc(-c2ccc(F)cc2F)on1 (single isomer, unassigned) [Compound P-7] the inhibition of growth at 20 ppm was ≥ 80%. For Cn1cc(C2CN(C(=O)c3cc(-c4ccc(S(C)(=O)=O)cc4F)on3)Cc3ccccc32)cn1 (centres unmarked) [Compound P-20, [5-(2-fluoro-4-methylsulfonyl-phenyl)isoxazol-3-yl]-[4-(1-methylpyrazol-4-yl)-3,4-dihydro-1H-isoquinolin-2-yl]methanone], the inhibition of growth at 20 ppm was ≥ 80%. For Cn1cc(C2CN(C(=O)c3cc(-c4ccc(F)cc4F)on3)Cc3cc(-c4ccccc4)ccc32)cn1 (centres unmarked) [Compound P-21, [5-(2,4-difluorophenyl)isoxazol-3-yl]-[4-(1-methylpyrazol-4-yl)-7-phenyl-3,4-dihydro-1H-isoquinolin-2-yl]methanone], the inhibition of growth at 20 ppm was ≥ 80%. CC1c2ccc(OCC(F)(F)F)cc2C(C)(c2cnn(C)c2)CN1C(=O)c1cc(-c2ccccc2)on1 (centres unmarked) [Compound P-27, [1,4-dimethyl-4-(1-methylpyrazol-4-yl)-6-(2,2,2-trifluoroethoxy)-1,3-dihydroisoquinolin-2-yl]-(5-phenylisoxazol-3-yl)methanone] was tested, and the inhibition of growth at 20 ppm was ≥ 80%. With CC1c2ccc(OC(F)F)cc2C(C)(c2cnn(C)c2)CN1C(=O)c1cc(-c2ccccc2)on1 (centres unmarked) [Compound P-28, [6-(difluoromethoxy)-1,4-dimethyl-4-(1-methylpyrazol-4-yl)-1,3-dihydroisoquinolin-2-yl]-(5-phenylisoxazol-3-yl)methanone] the inhibition of growth at 20 ppm was ≥ 80%. In the case of CC1c2ccc(O)cc2C(C)(c2cnn(C)c2)CN1C(=O)c1cc(-c2ccccc2)on1 (centres unmarked) [Compound P-29, [6-hydroxy-1,4-dimethyl-4-(1-methylpyrazol-4-yl)-1,3-dihydroisoquinolin-2-yl]-(5-phenylisoxazol-3-yl)methanone], the inhibition of growth at 20 ppm is reported as ≥ 80%. For CCC1c2ccccc2C(c2cnn(C)c2)CN1C(=O)c1cc(-c2ccccc2)on1 (centres unmarked) [Compound P-37, [1-ethyl-4-(1-methylpyrazol-4-yl)-3,4-dihydro-1H-isoquinolin-2-yl]-(5-phenylisoxazol-3-yl)methanone], the inhibition of growth at 20 ppm was ≥ 80%. With COC(=O)C1c2ccccc2C(c2cnn(C)c2)CN1C(=O)c1cc(-c2ccccc2)on1 (centres unmarked) [Compound P-41, methyl 4-(1-methylpyrazol-4-yl)-2-(5-phenylisoxazole-3-carbonyl)-3,4-dihydro-1H-isoquinoline-1-carboxylate] the inhibition of growth at 20 ppm was ≥ 80%. Cn1cc(C2CN(C(=O)c3cc(-c4ccc(F)cc4F)on3)C(c3ccccc3)c3ccccc32)cn1 (centres unmarked) [Compound P-43, [5-(2,4-difluorophenyl)isoxazol-3-yl]-[4-(1-methylpyrazol-4-yl)-1-phenyl-3,4-dihydro-1H-isoquinolin-2-yl]methanone] was tested, and the inhibition of growth at 20 ppm was ≥ 80%. CCCC1c2ccccc2C(c2cnn(C)c2)CN1C(=O)c1cc(-c2ccc(F)cc2F)on1 (centres unmarked) [Compound P-59, [5-(2,4-difluorophenyl)isoxazol-3-yl]-[4-(1-methylpyrazol-4-yl)-1-propyl-3,4-dihydro-1H-isoquinolin-2-yl]methanone] was tested, and the inhibition of growth at 20 ppm was ≥ 80%. In the case of COC(=O)c1ccc2c(c1)C(c1cnn(C)c1)CN(C(=O)c1cc(-c3ccc(F)cc3F)on1)C2 (centres unmarked) [Compound P-61, methyl 2-[5-(2,4-difluorophenyl)isoxazole-3-carbonyl]-4-(1-methylpyrazol-4-yl)-3,4-dihydro-1H-isoquinoline-6-carboxylate], the inhibition of growth at 20 ppm is reported as ≥ 80%. With COc1ccc2c(c1)C(c1cnn(C)c1)CN(C(=O)c1cc(-c3ccc(F)cc3F)on1)C2 (centres unmarked) [Compound P-66, [5-(2,4-difluorophenyl)isoxazol-3-yl]-[6-methoxy-4-(1-methylpyrazol-4-yl)-3,4-dihydro-1H-isoquinolin-2-yl]methanone] the inhibition of growth at 20 ppm was ≥ 80%. For Cn1cc(C2CN(C(=O)c3ncc(C4CC4)o3)Cc3ccccc32)cn1 (centres unmarked) [Compound P-68, (5-cyclopropyloxazol-2-yl)-[4-(1-methylpyrazol-4-yl)-3,4-dihydro-1H-isoquinolin-2-yl]methanone], the inhibition of growth at 20 ppm was ≥ 80%. For Cn1cc(C2CN(C(=O)c3coc(-c4ccc(F)cc4)n3)Cc3ccccc32)cn1 (centres unmarked) [Compound P-69, [2-(4-fluorophenyl)oxazol-4-yl]-[4-(1-methylpyrazol-4-yl)-3,4-dihydro-1H-isoquinolin-2-yl]methanone], the inhibition of growth at 20 ppm was ≥ 80%. Cn1cc(C2CN(C(=O)c3cc(C(C)(C)C)no3)Cc3ccccc32)cn1 (centres unmarked) [Compound P-83, (3-tert-butylisoxazol-5-yl)-[4-(1-methylpyrazol-4-yl)-3,4-dihydro-1H-isoquinolin-2-yl]methanone] was tested, and the inhibition of growth at 20 ppm was ≥ 80%. With CCCc1cc(C(=O)N2Cc3ccccc3C(c3cnn(C)c3)C2)no1 (centres unmarked) [Compound P-84, [4-(1-methylpyrazol-4-yl)-3,4-dihydro-1H-isoquinolin-2-yl]-(5-propylisoxazol-3-yl)methanone] the inhibition of growth at 20 ppm was ≥ 80%. CCC(C)c1cc(C(=O)N2Cc3ccccc3C(c3cnn(C)c3)C2)on1 (centres unmarked) [Compound P-88, [4-(1-methylpyrazol-4-yl)-3,4-dihydro-1H-isoquinolin-2-yl]-(3-sec-butylisoxazol-5-yl)methanone] was tested, and the inhibition of growth at 20 ppm was ≥ 80%. For Cn1cc(C2CN(C(=O)c3noc(-c4cc(F)ccc4F)n3)Cc3ccccc32)cn1 (centres unmarked) [Compound P-90, [5-(2,5-difluorophenyl)-1,2,4-oxadiazol-3-yl]-[4-(1-methylpyrazol-4-yl)-3,4-dihydro-1H-isoquinolin-2-yl]methanone], the inhibition of growth at 20 ppm was ≥ 80%. With Cn1cc(C2CN(C(=O)c3cc(-c4ccccc4)on3)Cc3cc(C(F)(F)F)ccc32)cn1 (centres unmarked) [Compound P-103, [4-(1-methylpyrazol-4-yl)-7-(trifluoromethyl)-3,4-dihydro-1H-isoquinolin-2-yl]-(5-phenylisoxazol-3-yl)methanone] the inhibition of growth at 20 ppm was ≥ 80%. In the case of Cn1cc(C2CN(C(=O)c3cc(-c4ccc(F)cc4F)on3)Cc3ccc(C(F)(F)F)cc32)cn1 (centres unmarked) [Compound P-112, [5-(2,4-difluorophenyl)isoxazol-3-yl]-[4-(1-methylpyrazol-4-yl)-6-(trifluoromethyl)-3,4-dihydro-1H-isoquinolin-2-yl]methanone], the inhibition of growth at 20 ppm is reported as ≥ 80%. For Cc1nn(C)c(C)c1C1c2ccccc2CN(C(=O)c2cc(-c3ccc(F)cc3F)on2)C1C (centres unmarked) [Compound P-113, [5-(2,4-difluorophenyl)isoxazol-3-yl]-[3-methyl-4-(1,3,5-trimethylpyrazol-4-yl)-3,4-dihydro-1H-isoquinolin-2-yl]methanone], the inhibition of growth at 20 ppm was ≥ 80%. In the case of CCn1nc(C)c(C2CN(C(=O)c3cc(-c4ccc(F)cc4F)on3)Cc3ccccc32)c1C (centres unmarked) [Compound P-116, [5-(2,4-difluorophenyl)isoxazol-3-yl]-[4-(1-ethyl-3,5-dimethyl-pyrazol-4-yl)-3,4-dihydro-1H-isoquinolin-2-yl]methanone], the inhibition of growth at 20 ppm is reported as ≥ 80%. For C#CCn1cc(C2CN(C(=O)c3cc(-c4ccccc4)on3)Cc3ccccc32)cn1 (centres unmarked) [Compound P-128, (5-phenylisoxazol-3-yl)-[4-(1-prop-2-ynylpyrazol-4-yl)-3,4-dihydro-1H-isoquinolin-2-yl]methanone], the inhibition of growth at 20 ppm was ≥ 80%. For Cn1cc(C2CN(C(=O)c3cc(-c4c(F)cc(F)cc4F)no3)Cc3ccccc32)cn1 (centres unmarked) [Compound P-129, [4-(1-methylpyrazol-4-yl)-3,4-dihydro-1H-isoquinolin-2-yl]-[3-(2,4,6-trifluorophenyl)isoxazol-5-yl]methanone], the inhibition of growth at 20 ppm was ≥ 80%. In the case of Cn1cc(C2CN(C(=O)c3cc(-c4ccc(F)c(F)c4F)on3)Cc3ccccc32)cn1 (centres unmarked) [Compound P-144, [4-(1-methylpyrazol-4-yl)-3,4-dihydro-1H-isoquinolin-2-yl]-[5-(2,3,4-trifluorophenyl)isoxazol-3-yl]methanone], the inhibition of growth at 20 ppm is reported as ≥ 80%. Cn1cc(C2CN(C(=O)c3coc(-c4ccccc4)c3)Cc3ccccc32)cn1 (centres unmarked) [Compound P-147, [4-(1-methylpyrazol-4-yl)-3,4-dihydro-1H-isoquinolin-2-yl]-(5-phenyl-3-furyl)methanone] was tested, and the inhibition of growth at 20 ppm was ≥ 80%. With Cn1cc(C2CN(C(=O)c3cc(-c4cccc(F)c4F)on3)Cc3ccccc32)cn1 (centres unmarked) [Compound P-150, [5-(2,3-difluorophenyl)isoxazol-3-yl]-[4-(1-methylpyrazol-4-yl)-3,4-dihydro-1H-isoquinolin-2-yl]methanone] the inhibition of growth at 20 ppm was ≥ 80%. Cn1cc(C2CN(C(=O)c3cc(-c4ccccc4)ns3)Cc3ccccc32)cn1 (centres unmarked) [Compound P-161, [4-(1-methylpyrazol-4-yl)-3,4-dihydro-1H-isoquinolin-2-yl]-(3-phenylisothiazol-5-yl)methanone] was tested, and the inhibition of growth at 20 ppm was ≥ 80%. In the case of COc1cccc(-c2cc(C(=O)N3Cc4ccccc4C(c4cnn(C)c4)C3)no2)c1 (centres unmarked) [Compound P-167, [5-(3-methoxyphenyl)isoxazol-3-yl]-[4-(1-methylpyrazol-4-yl)-3,4-dihydro-1H-isoquinolin-2-yl]methanone], the inhibition of growth at 20 ppm is reported as ≥ 80%.
